The values that follow come from ChEMBL document CHEMBL1201862, “PubChem BioAssay data set” (2004).

Common to all, as to experiment: growth of human tumour cells (NCI), 48 h
In test [1] the test system is SF-539.
Test [2] has as its system SK-MEL-28.
Test [3] concerns HCT-15.
The subject of test [4] is SR.
Test [5] deals with EKVX.
Test [6] deals with COLO 205.
In test [7] the test system is A549.
Test [8] relates to CCRF-CEM.
Test [9] has as its system KM-20L2.
Test [10] has as its system NCI-H460.
In test [11] the test system is NCI-H522.
Test [12] concerns UO-31.
Test [13] concerns 786-0.
Test [14] has as its system MDA-MB-231.
The test system of test [15] is PC-3.
Test [16] relates to MDA-N.
Test [17] deals with NCI/ADR-RES.
In test [18] the test system is BT-549.
In test [19] the test system is T47D.
Test [20] deals with MCF7.

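Cultured in 96-well plates, cells were exposed to test compound for 48 hours across five concentrations. Abbreviation: GI50, concentration required for 50% inhibition of growth.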 Calls of active or inactive are those of the source. Rule as the data show it: active = GI50 up to about 1.1 µM and inactive = higher.

Regarding `OCCCCCNc1ccnc2cc(Cl)ccc12`, the GI50 in test [1] is > 100 µM (inactive); in test [2], > 100 µM (inactive); in [3] it was greater than 100 µM; in [4], 19.5 µM (inactive); in test [5], 86.3 µM (inactive); in test [6], 33.7 µM (inactive). Besides, the GI50 in test [7] is > 100 µM (inactive); in test [8] it was > 100 µM (inactive); in test [9] it was > 100 µM (inactive); in [10], 69.3 µM (inactive); in test [11] it was 87.5 µM (inactive); in test [12] it was 24.2 µM (inactive). Also, in [13], the GI50 is > 100 µM (inactive).
As to `C#CCN(N=O)C(=O)NC(CCCNC(=O)OCc1ccccc1)C(=O)OCc1ccccc1` (stereo unspecified), the GI50 in test [1] was 75.7 µM (inactive); in [2], 24.9 µM (inactive); in test [3] it was 76.4 µM; in test [4], 34.8 µM (inactive); in test [5] it was > 100 µM (inactive); in [6], 91.2 µM (inactive). The GI50 in [7] was > 100 µM (inactive); in test [8] it was 22.8 µM (inactive); in test [9] it was > 100 µM (inactive); in test [10] it was > 100 µM (inactive); in test [11] it was 13.2 µM (inactive); in test [12] it was > 100 µM (inactive). The GI50 in test [13] was > 100 µM (inactive).
As for `CCN1C(=O)/C(=C\c2coc3ccccc3c2=O)SC1=S`, the GI50 was 32.8 µM (inactive) in test [1]; > 100 µM (inactive) in [2]; 39.1 µM in test [3]; 36.6 µM (inactive) in test [4]; > 100 µM (inactive) in [5]; > 100 µM (inactive) in test [6]. Also, the GI50 in test [7] was > 100 µM (inactive); in [8] it was 65.6 µM (inactive); in test [9], > 100 µM (inactive); in test [10], > 100 µM (inactive); in test [11], 91.4 µM (inactive); in test [12], > 100 µM (inactive). In addition, the GI50 in [13] is 73.8 µM (inactive).
Consider `CNC(=O)NC(CCCCNC(=O)OCc1ccccc1)C(=O)OCc1ccccc1` (stereo unspecified), for which the GI50 in test [1] is 30.3 µM (inactive); in test [2], 19.8 µM (inactive); in test [14], > 42.9 µM (inactive); in [3] it was greater than 96.8 µM; in [4] it was 19.9 µM (inactive); in [5], 59.8 µM (inactive). The GI50 is 45.1 µM (inactive) in test [15]; 16.3 µM (inactive) in test [6]; > 82 µM (inactive) in test [7]; 19.5 µM (inactive) in test [16]; 14.7 µM (inactive) in [8]; > 100 µM (inactive) in test [9]. Further, the GI50 in test [17] is > 100 µM (inactive); in [18] it was > 78.2 µM (inactive); in test [10], > 100 µM (inactive); in [19], 28.1 µM (inactive); in test [20], 53 µM (inactive); in test [11], 12.6 µM (inactive). Further, the GI50 in test [12] is 47.3 µM (inactive); in test [13], 80.2 µM (inactive).
`CC1C(c2ccccc2)=CCON1c1ccccc1` (stereo unspecified): the GI50 in test [1] is > 100 µM (inactive); in test [2], > 100 µM (inactive); in test [3], greater than 100 µM; in test [4], > 100 µM (inactive); in test [5], > 100 µM (inactive); in [6], > 100 µM (inactive). The GI50 in [7], in test [8], in test [9], in [10], in test [11] and in test [12] was > 100 µM (inactive) each time. Besides, in test [13], the GI50 is > 100 µM (inactive).
Turning to `CCCCCCCCCCCCCCCCc1c(C(=O)OC)[nH]c(=S)[nH]c1=O`, the GI50 in [1] was > 50 µM (inactive); in [2] it was > 50 µM (inactive); in test [3] it was greater than 50 µM; in test [4], 0.0151 µM (active); in [5], > 50 µM (inactive); in test [6], > 50 µM (inactive). Besides, the GI50 in test [7], in [8], in [9], in [10], in [11] and in test [12] was > 50 µM (inactive) each time. The GI50 in test [13] was > 50 µM (inactive).
With `CCCCCCCC/C=C1\CCC(CN(C)C)C1=O` (stereo unspecified), the GI50 was 4.82 µM (inactive) in [1]; 3.89 µM (inactive) in [2]; 2.77 µM in [3]; 3.15 µM (inactive) in test [4]; 9.06 µM (inactive) in test [5]; 4.16 µM (inactive) in [6]. The GI50 in test [7] was 19.3 µM (inactive); in test [8], 1.54 µM (inactive); in test [9], 7.6 µM (inactive); in test [10], 10.7 µM (inactive); in [11] it was 3.54 µM (inactive); in test [12], 11 µM (inactive). In [13], the GI50 was 1.53 µM (inactive).
Take `O=C1C2C3C=CC(C2C(=O)N1COP(=O)(O)O)C1C2C(=O)N(COP(=O)(O)O)C(=O)C2C31` (stereo unspecified): the GI50 was > 100 µM (inactive) in test [1]; > 100 µM (inactive) in test [2]; greater than 41.3 µM in test [3]; 17.5 µM (inactive) in test [4]; > 100 µM (inactive) in test [5]; > 47.5 µM (inactive) in test [6]. In addition, the GI50 is > 69.7 µM (inactive) in test [7]; > 42.4 µM (inactive) in test [8]; > 100 µM (inactive) in test [9]; > 41.9 µM (inactive) in test [10]; > 100 µM (inactive) in [11]; > 100 µM (inactive) in test [12]. The GI50 in test [13] is > 71.6 µM (inactive).
